Test results: patent US20100298384A1, “NOVEL OXAZOLIDINONE COMPOUNDS AS ANTIINFECTIVE AGENTS” (priority 2006, published 2010)

Columns and labels:
[1] = system: S. aureus ATCC 29213 and other strains; assay: Systemic infection model in mice, ED50 by Probit analysis; type: in vivo; conditions: Staphylococcus aureus, ATCC29213, Swiss albino mice, survival observed 5 to 7 days, route and regimen not stated per value
Procedure: Efficacies of the molecules were determined by systemic infection model. In this model, 6-7 weeks old Swiss albino mice (3 Males and 3 Females/group) weighing 21-25 grams were used. S. aureus ATCC 29213 and other strains were cultured on Columbia Blood agar (DIFCO), overnight, at 37° C. for 18 to 24 hours. Inoculum was prepared in 0.9% saline and optical density (OD) was adjusted at 560 nm to get 100×LD50 dose. Inoculum was diluted 1:1 with 10% Hog Gastric Mucin and 0.5 ml of inoculum was injected intraperitonially to each animal. Test compounds were solubilised in suitable formulation and administered by per-oral, subcutaneous or intra venous route by q.d., b.i.d. or t.i.d. protocol. […] ED50 Value (mg/kg) was calculated by Probit analysis.

| Compound | ED50 [1] | melting point |
| --- | --- | --- |
| CC(=O)NC[C@H]1CN(c2ccc(-c3nc(Cn4cccn4)co3)c(F)c2)C(=O)O1 [Example 2, N-{3-[3-fluoro-4-(4-pyrazol-1-ylmethyl-oxazol-2-yl)-phenyl]-2-oxo-oxazolidin-5(S)-ylmethyl}-acetamide] | 7.1 mg/kg | 204 to 206 °C |
| CC(=O)NC[C@H]1CN(c2ccc(-c3nc(Cn4cncn4)co3)c(F)c2)C(=O)O1 [Example 4, N-{3-[3-fluoro-4-(4-[1,2,4]-triazol-1-ylmethyl-oxazol-2-yl)-phenyl]-2-oxo-oxazolidin-5(S)-ylmethyl}-acetamide] | 5.38 mg/kg | 160 to 162 °C |
| CC(=O)NC[C@H]1CN(c2ccc(-n3cc(Cn4cncn4)nn3)c(F)c2)C(=O)O1 [Example 30] | 8.5 mg/kg | 170 to 171 °C |
| COC(=O)NC[C@H]1CN(c2ccc(-n3cnc(Cn4cccn4)c3)c(F)c2)C(=O)O1 [Example 44, Methyl {3-[3-fluoro-4-(4-pyrazol-1-ylmethyl-imidazol-1-yl)-phenyl]-2-oxo-oxazolidin-5-ylmethyl}-carbamate] | 5.02 mg/kg | 130 °C |
| COC(=O)NC[C@H]1CN(c2ccc(-n3cc(Cn4cccn4)nn3)c(F)c2)C(=O)O1 [Example 46, Methyl N-{3-[3-fluoro-4-(4-pyrazol-1-yl-methyl-(1,2,3)triazol-1-yl)-phenyl]-2-oxo-oxazolidin-5-ylmethyl}carbamate] | 2.53 mg/kg |  |
| COC(=S)NC[C@H]1CN(c2ccc(-c3nc(Cn4ccnc4)cs3)c(F)c2)C(=O)O1 [Example 51, O-methyl {3-[3-fluoro-4-(4-imidazol-1-ylmethyl-thiazol-2-yl)-phenyl]-2-oxo-oxazolidin-5(S)-ylmethyl}-thiocarbamate] |  | 169 to 171 °C |
| COC(=S)NC[C@H]1CN(c2ccc(-c3nc(Cn4cncn4)cs3)c(F)c2)C(=O)O1 [Example 52, O-methyl {3-[3-fluoro-4-(4-[1,2,4]triazol-1-ylmethyl-thiazol-2-yl)-phenyl]-2-oxo-oxazolidin-5(S)-ylmethyl}-thiocarbamate] |  | 189 to 191 °C |
| COC(=S)NC[C@H]1CN(c2ccc(-c3nc(Cn4cccn4)cs3)c(F)c2)C(=O)O1 [Example 53, O-methyl {3-[3-fluoro-4-(4-pyrazol-1-ylmethyl-thiazol-2-yl)-phenyl]-2-oxo-oxazolidin-5(S)-ylmethyl}-thiocarbamate] |  | 157 to 158 °C |
| COC(=S)NC[C@H]1CN(c2ccc(-n3cc(Cn4ccc(C(F)(F)F)n4)nn3)c(F)c2)C(=O)O1 [Example 59] |  | 179 to 180 °C |
| CC(=S)NC[C@H]1CN(c2ccc(-c3nc(Cn4ccnc4)cs3)c(F)c2)C(=O)O1 [Example 60, N-{3-[3-fluoro-4-(4-imidazol-1-ylmethyl-thiazol-2-yl)-phenyl]-2-oxo-oxazolidin-5(S)-ylmethyl}-thioacetamide] |  | 169 to 171 °C |
| CC(=S)NC[C@H]1CN(c2ccc(-c3nc(Cn4cncn4)cs3)c(F)c2)C(=O)O1 [Example 61, N-{3-[3-fluoro-4-(4-[1,2,4]triazol-1-ylmethyl-thiazol-2-yl)-phenyl]-2-oxo-oxazolidin-5(S)-ylmethyl}-thioacetamide] |  | 180 to 182 °C |
| CC(=S)NC[C@H]1CN(c2ccc(-c3nc(Cn4cccn4)cs3)c(F)c2)C(=O)O1 [Example 62, N-{3-[3-fluoro-4-(4-pyrazole-1-ylmethyl-thiazol-2-yl)-phenyl]-2-oxo-oxazolidin-5(S)-ylmethyl}-thioacetamide] |  | 166 to 168 °C |
| CC(=S)NC[C@H]1CN(c2ccc(-c3csc(Cn4cncn4)n3)c(F)c2)C(=O)O1 [Example 63, N-{3-[3-Fluoro-4-(2[1,2,4]-triazol-1-ylmethyl-thiazol-4-yl)-phenyl]-2-oxo-oxazolidin-5-ylmethyl}-thioacetamide] |  | 82 to 84 °C |
| CC(=S)NC[C@H]1CN(c2ccc(-n3cnc(Cn4cncn4)c3)c(F)c2)C(=O)O1 [Example 67, N-{3-[3-fluoro-4-(4-[1,2,4]triazol-1-ylmethyl-imidazol-1-yl)-phenyl]-2-oxo-oxazolidin-5-ylmethyl}-thioacetamide] |  | 171 to 173 °C |
